Measurements from patent US9914730B2, “Azaquinazoline inhibitors of Atypical protein Kinase C” (Ignyta, Inc., priority 2012, dated 2018).

The molecules below were run against T1, full-length human PKCι (Homo sapiens, UniProt P41743) (assay: PKCι IC50 IMAP assay, full-length PKCι at 150 μM ATP). Details: read-out: IC50 in IMAP assay against full length PKCi at 150 μM ATP.
T1 construct: Recombinant, full-length human PKCι expressed in Sf21 insect cells is also commercially available; purchased; host or cells: Sf21 insect cells
T1 sequence (P41743 1-596): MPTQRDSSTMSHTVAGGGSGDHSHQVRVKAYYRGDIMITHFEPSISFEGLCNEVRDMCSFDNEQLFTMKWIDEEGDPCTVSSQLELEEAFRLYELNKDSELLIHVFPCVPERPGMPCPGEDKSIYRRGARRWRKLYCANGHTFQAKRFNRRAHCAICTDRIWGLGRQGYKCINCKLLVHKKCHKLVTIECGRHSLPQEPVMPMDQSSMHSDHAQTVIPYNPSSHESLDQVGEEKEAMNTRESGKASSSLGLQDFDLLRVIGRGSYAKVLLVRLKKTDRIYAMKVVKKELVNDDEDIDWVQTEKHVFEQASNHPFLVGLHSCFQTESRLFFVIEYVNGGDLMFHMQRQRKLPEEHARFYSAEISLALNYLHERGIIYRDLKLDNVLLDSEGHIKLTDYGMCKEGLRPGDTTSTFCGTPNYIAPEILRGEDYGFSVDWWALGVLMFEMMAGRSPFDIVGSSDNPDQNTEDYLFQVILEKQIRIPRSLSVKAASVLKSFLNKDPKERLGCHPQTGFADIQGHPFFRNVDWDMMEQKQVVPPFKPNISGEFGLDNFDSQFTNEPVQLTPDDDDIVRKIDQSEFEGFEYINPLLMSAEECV
Type: biochemical
Procedure, shortened: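 Full-length human PKCι from Sf21 cells, typically 15 pM, with 100 nM 5FAM-PKCε pseudosubstrate peptide and 150 μM ATP (5× apparent KM), 60 min at room temperature, 4% DMSO. IMAP fluorescence polarisation read-out; inhibition normalised to no-compound and no-enzyme controls, IC50 from curve fit.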

SMILES | IC50
COc1cncc2nc(-c3ccnc(Nc4ccccc4)c3)nc(N3CCC(F)(F)CC3)c12 [Example 460, {4-[4-(4,4-Difluoro-piperidin-1-yl)-5-methoxy-pyrido[3,4-d]pyrimidin-2-yl]-pyridin-2-yl}-phenyl-amine] | 10 to 40 µM
COc1cncc2nc(-c3ccnc(Nc4ccccc4)c3)nc(N3CC[C@@H](O)[C@@H](O)CC3)c12 [Example 467, (meso)-cis-1-[5-Methoxy-2-(2-phenylamino-pyridin-4-yl)-pyrido[3,4-d]pyrimidin-4-yl]-azepane-4,5-diol] | 1 to 10 µM
COc1cncc2nc(-c3ccnc(Nc4cccc(F)n4)c3)nc(N3CCC(O)CC3)c12 [Example 468, 1-{2-[2-(6-Fluoro-pyridin-2-ylamino)-pyridin-4-yl]-5-methoxy-pyrido[3,4-d]pyrimidin-4-yl}-piperidin-4-ol] | 0.1 to 1 µM
COc1cccc(Nc2cc(-c3nc(N4CCC(O)CC4)c4c(OC)cncc4n3)ccn2)n1 [Example 469, 1-{5-Methoxy-2-[2-(6-methoxy-pyridin-2-ylamino)-pyridin-4-yl]-pyrido[3,4-d]pyrimidin-4-yl}-piperidin-4-ol] | 1 to 10 µM
COc1cncc2nc(-c3ccnc(Nc4cccc(F)n4)c3)nc(N3CC[C@H](CO)C3)c12 [Example 470, ((S)-1-{2-[2-(6-Fluoro-pyridin-2-ylamino)-pyridin-4-yl]-5-methoxy-pyrido[3,4-d]pyrimidin-4-yl}-pyrrolidin-3-yl)-methanol] | 1 to 10 µM
COc1cccc(Nc2cc(-c3nc(N4CC[C@H](CO)C4)c4c(OC)cncc4n3)ccn2)n1 [Example 471, ((S)-1-{5-Methoxy-2-[2-(6-methoxy-pyridin-2-ylamino)-pyridin-4-yl]-pyrido[3,4-d]pyrimidin-4-yl}-pyrrolidin-3-yl)-methanol] | 1 to 10 µM
Clc1ccccc1Nc1cc(-c2nc(N3CCNCC3)c3c(C4CC4)cncc3n2)ccn1 [Example 477, (2-Chloro-phenyl)-[4-(5-cyclopropyl-4-piperazin-1-yl-pyrido[3,4-d]pyrimidin-2-yl)-pyridin-2-yl]-amine] | < 0.1 µM
Cc1ccncc1Nc1cc(-c2nc(N3CCNCC3)c3c(C4CC4)cncc3n2)ccn1 [Example 478, [4-(5-Cyclopropyl-4-piperazin-1-yl-pyrido[3,4-d]pyrimidin-2-yl)-pyridin-2-yl]-(4-methyl-pyridin-3-yl)-amine] | < 0.1 µM
N#Cc1ccnc(Nc2cc(-c3nc(N4CCC(O)CC4)c4c(C5CC5)cncc4n3)ccn2)c1 [Example 482, 2-{4-[5-Cyclopropyl-4-(4-hydroxy-piperidin-1-yl)-pyrido[3,4-d]pyrimidin-2-yl]-pyridin-2-ylamino}-isonicotinonitrile] | 0.1 to 1 µM
COc1cncc2nc(-c3ccnc(Nc4cnn(-c5ccccc5)c4)c3)nc(N3CCNCC3)c12 [Example 489, 4-(5-Methoxy-4-piperazin-1-yl-pyrido[3,4-d]pyrimidin-2-yl)-N-(1-phenylpyrazol-4-yl)pyridin-2-amine] | < 0.1 µM
COc1cncc2nc(-c3ccnc(Nc4cnn(-c5ccccc5F)c4)c3)nc(N3CCNCC3)c12 [Example 491, [1-(2-Fluoro-phenyl)-1H-pyrazol-4-yl]-[4-(5-methoxy-4-piperazin-1-yl-pyrido[3,4-d]pyrimidin-2-yl)-pyridin-2-yl]-amine] | < 0.1 µM
c1ccc(-n2cc(Nc3cc(-c4nc(N5CCNCC5)c5c(C6CC6)cncc5n4)ccn3)cn2)cc1 [Example 492, [4-(5-cyclopropyl-4-piperazin-1-yl-pyrido[3,4-d]pyrimidin-2-yl)-pyridin-2-yl]-(1-phenyl-1H-pyrazol-4-yl)-amine] | < 0.1 µM
Cc1c2ccc(Nc3cc(-c4nc(N5CCNCC5)c5c(C6CC6)cncc5n4)ccn3)cc2nn1C [Example 493, [4-(5-Cyclopropyl-4-piperazin-1-yl-pyrido[3,4-d]pyrimidin-2-yl)-pyridin-2-yl]-(2,3-dimethyl-2H-indazol-6-yl)-amine] | < 0.1 µM
Fc1ncccc1Nc1cc(-c2nc(N3CCNCC3)c3c(C4CC4)cncc3n2)ccn1 [Example 495, [4-(5-cyclopropyl-4-piperazin-1-yl-pyrido[3,4-d]pyrimidin-2-yl)-pyridin-2-yl]-(2-fluoro-pyridin-3-yl)-amine] | < 0.1 µM
COc1cncc2nc(-c3ccnc(Nc4cc(C)on4)c3)nc(N3CCNCC3)c12 [Example 496, [4-(5-Methoxy-4-piperazin-1-yl-pyrido[3,4-d]pyrimidin-2-yl)-pyridin-2-yl]-(5-methyl-isoxazol-3-yl)-amine] | 10 to 40 µM
CNc1nc(-c2ccnc(Nc3ccc(OCCN4CCCC4)cc3)c2)nc2cncc(OC)c12 [Example 501, (5-Methoxy-2-{2-[4-(2-pyrrolidin-1-yl-ethoxy)-phenylamino]-pyridin-4-yl}-pyrido[3,4-d]pyrimidin-4-yl)-methyl-amine] | 10 to 40 µM
Cc1ccc(F)c(Nc2cc(-c3nc(N4CCNCC4)c4c(C5CC5)cncc4n3)ccn2)c1 [Example 504, [4-(5-Cyclopropyl-4-piperazin-1-yl-pyrido[3,4-d]pyrimidin-2-yl)-pyridin-2-yl]-(2-fluoro-5-methyl-phenyl)-amine] | < 0.1 µM
Cc1ccc(C)c(Nc2cc(-c3nc(N4CCNCC4)c4c(C5CC5)cncc4n3)ccn2)c1 [Example 505, [4-(5-Cyclopropyl-4-piperazin-1-yl-pyrido[3,4-d]pyrimidin-2-yl)-pyridin-2-yl]-(2,5-dimethyl-phenyl)-amine] | < 0.1 µM
N#Cc1ccc(Nc2cc(-c3nc(N4CCNCC4)c4c(C5CC5)cncc4n3)ccn2)cn1 [Example 506, 5-[4-(5-Cyclopropyl-4-piperazin-1-yl-pyrido[3,4-d]pyrimidin-2-yl)-pyridin-2-ylamino]-pyridine-2-carbonitrile] | 0.1 to 1 µM
c1cnc(Nc2cc(-c3nc(N4CCNCC4)c4c(C5CC5)cncc4n3)ccn2)cn1 [Example 507] | < 0.1 µM
FC(F)(F)C1CN(c2nc(-c3ccnc(NC4CC4)c3)nc3cncc(C4CC4)c23)CCN1 (centres unmarked) [Example 508, Cyclopropyl-{4-[5-cyclopropyl-4-(3-trifluoromethyl-piperazin-1-yl)-pyrido[3,4-d]pyrimidin-2-yl]-pyridin-2-yl}-amine] | < 0.1 µM
c1cc(-c2nc(N3CCNCC3)c3c(C4CC4)cncc3n2)cc(N[C@@H]2CCOC2)n1 [Example 509, [4-(5-Cyclopropyl-4-piperazin-1-yl-pyrido[3,4-d]pyrimidin-2-yl)-pyridin-2-yl]-(R)-tetrahydro-furan-3-yl-amine] | < 0.1 µM

Continued, values first:

IC50 | SMILES
< 0.1 µM | Fc1cccc(Nc2cc(-c3nc(N4CCNCC4)c4c(C5CC5)cncc4n3)ccn2)n1 [Example 483, [4-(5-Cyclopropyl-4-piperazin-1-yl-pyrido[3,4-d]pyrimidin-2-yl)-pyridin-2-yl]-(6-fluoro-pyridin-2-yl)-amine]
< 0.1 µM | Cc1ccccc1Nc1cc(-c2nc(N3CCNCC3)c3c(C4CC4)cncc3n2)ccn1 [Example 486, [4-(5-Cyclopropyl-4-piperazin-1-yl-pyrido[3,4-d]pyrimidin-2-yl)-pyridin-2-yl]-o-tolyl-amine]
< 0.1 µM | COc1cncc2nc(-c3ccnc(Nc4ccc5c(C)n(C)nc5c4)c3)nc(N3CCNCC3)c12 [Example 490, (2,3-Dimethyl-2H-indazol-6-yl)-[4-(5-methoxy-4-piperazin-1-yl-pyrido[3,4-d]pyrimidin-2-yl)-pyridin-2-yl]-amine]
0.1 to 1 µM | c1ccc(Nc2cc(-c3nc(N4CCNCC4)c4ccncc4n3)ccn2)cc1 [Example 494, Phenyl-[4-(4-piperazin-1-yl-pyrido[3,4-d]pyrimidin-2-yl)-pyridin-2-yl]-amine]
10 to 40 µM | Oc1nc(-c2ccnc(Nc3cccc(N4CCNCC4)c3)c2)nc2cnccc12 [Example 497, 2-[2-(3-piperazin-1-yl-phenylamino)-pyridin-4-yl]-pyrido[3,4-d]pyrimidin-4-ol]
10 to 40 µM | Oc1nc(-c2ccnc(Nc3cccc(CN4CCNCC4)c3)c2)nc2cnccc12 [Example 498, 2-[2-(3-piperazin-1-ylmethyl-phenylamino)-pyridin-4-yl]-pyrido[3,4-d]pyrimidin-4-ol]
10 to 40 µM | Oc1nc(-c2ccnc(Nc3cnn(CC4CCNCC4)c3)c2)nc2cnccc12 [Example 499, 2-[2-(1-Piperidin-4-ylmethyl-1H-pyrazol-4-ylamino)-pyridin-4-yl]-pyrido[3,4-d]pyrimidin-4-ol]
0.1 to 1 µM | CNc1nc(-c2ccnc(Nc3cccc(N4CCNCC4)c3)c2)nc2cncc(OC)c12 [Example 500, {5-Methoxy-2-[2-(3-piperazin-1-yl-phenylamino)-pyridin-4-yl]-pyrido[3,4-d]pyrimidin-4-yl}-methyl-amine]
1 to 10 µM | CNc1nc(-c2ccnc(Nc3cccc(C4CCNCC4)c3)c2)nc2cncc(OC)c12 [Example 502, {5-Methoxy-2-[2-(3-piperidin-4-yl-phenylamino)-pyridin-4-yl]-pyrido[3,4-d]pyrimidin-4-yl}-methyl-amine]
1 to 10 µM | COc1cncc2nc(-c3ccnc(Nc4cccc(N5CCNCC5)c4)c3)ncc12 [Example 503, [4-(5-Methoxy-pyrido[3,4-d]pyrimidin-2-yl)-pyridin-2-yl]-(3-piperazin-1-yl-phenyl)-amine]
